Laboratory results published in ChEMBL document CHEMBL6109129, “Discovery of Conformationally Constrained Dihydro Benzo-Indole Derivatives as Metallo-β-Lactamase Inhibitors to Tackle Multidrug-Resistant Bacterial Infections” (J Med Chem, 2025).
In brackets after ≈: the same amount, converted by molar mass. Activity calls are given as the source filed them. The calls are words filed in the database; no cut-off is given here.

What was measured:
[1] = Inhibition of IMP-1 (unknown origin) using FC5 as substrate preincubated for 10 mins followed by substrate addition and measured immediately by fluorescence based analysis; set-up: species or system Bacteria
[2] = target: Metallo-beta-lactamase type 2 (Bacteria, UniProt C7C422); assay: Inhibition of N-terminal truncated NDM1 (1 to 49N residues) (unknown origin) extracted from Escherichia coli BL21(DE3) cells using FC5 as substrate preincubated for 10 mins followed by substrate addition and measured immediately by fluorescence based analysis
[3] = Inhibition of VIM-1 (unknown origin) using FC5 as substrate preincubated for 10 mins followed by substrate addition and measured immediately by fluorescence based analysis; set-up: species or system Bacteria
[4] = system: Escherichia coli; assay: microbe, parasite or virus in culture; conditions: 541588
Description: Antibacterial activity against carbapenem-resistant Escherichia coli 541588 assessed as reduction in microbial growth measured after 16 to 18 hrs by microbial dilution method

[5] = system: Escherichia coli; assay: microbe, parasite or virus in culture; conditions: 565988
Description: Antibacterial activity against carbapenem-resistant Escherichia coli 565988 assessed as reduction in microbial growth measured after 16 to 18 hrs by microbial dilution method

[6] = system: Klebsiella pneumoniae subsp. pneumoniae; assay: Antibacterial activity against carbapenem-resistant Klebsiella pneumoniae subsp. pneumoniae BAA-2470 assessed as reduction in microbial growth measured after 16 to 18 hrs by microbial dilution method; type: functional; conditions: time 16-18 hrs
[7] = system: Escherichia coli; assay: Antibacterial activity against carbapenem-resistant Escherichia coli BAA-2471 assessed as reduction in microbial growth measured after 16 to 18 hrs by microbial dilution method; type: functional; conditions: time 16-18 hrs
[8] = system: Enterobacter cloacae; assay: Antibacterial activity against carbapenem-resistant Enterobacter cloacae BAA-2468 assessed as reduction in microbial growth measured after 16 to 18 hrs by microbial dilution method; type: functional; conditions: time 16-18 hrs
[9] = system: Escherichia coli; assay: microbe, parasite or virus in culture; conditions: 567975
Description: Antibacterial activity against carbapenem-resistant Escherichia coli 567975 assessed as reduction in microbial growth measured after 16 to 18 hrs by microbial dilution method

[10] = system: Klebsiella pneumoniae subsp. pneumoniae; assay: Antibacterial activity against carbapenem-resistant Klebsiella pneumoniae subsp. pneumoniae BAA-2472 assessed as reduction in microbial growth measured after 16 to 18 hrs by microbial dilution method; type: functional; conditions: time 16-18 hrs
[11] = system: Klebsiella pneumoniae; assay: Antibacterial activity against carbapenem-resistant Klebsiella pneumoniae 571278 assessed as reduction in microbial growth measured after 16 to 18 hrs by microbial dilution method; type: functional; conditions: time 16-18 hrs
[12] = system: Klebsiella pneumoniae; assay: Antibacterial activity against carbapenem-resistant Klebsiella pneumoniae BAA-2473 assessed as reduction in microbial growth measured after 16 to 18 hrs by microbial dilution method; type: functional; conditions: time 16-18 hrs
[13] = system: Escherichia coli; assay: Antibacterial activity against carbapenem-resistant Escherichia coli 571307 assessed as reduction in microbial growth measured after 16 to 18 hrs by microbial dilution method; type: functional; conditions: time 16-18 hrs
[14] = system: Klebsiella pneumoniae; assay: Antibacterial activity against carbapenem-resistant Klebsiella pneumoniae 552439 assessed as reduction in microbial growth measured after 16 to 18 hrs by microbial dilution method; type: functional; conditions: time 16-18 hrs
[15] = system: Klebsiella pneumoniae; assay: Antibacterial activity against carbapenem-resistant Klebsiella pneumoniae 565345 assessed as reduction in microbial growth measured after 16 to 18 hrs by microbial dilution method; type: functional; conditions: time 16-18 hrs
[16] = system: Klebsiella pneumoniae; assay: Antibacterial activity against carbapenem-resistant Klebsiella pneumoniae 538961 assessed as reduction in microbial growth measured after 16 to 18 hrs by microbial dilution method; type: functional; conditions: time 16-18 hrs
[17] = system: Escherichia coli; assay: Antibacterial activity against carbapenem-resistant Escherichia coli BAA-2469 assessed as reduction in microbial growth measured after 16 to 18 hrs by microbial dilution method; type: functional; conditions: time 16-18 hrs
[18] = system: Klebsiella pneumoniae; assay: Synergistic antibacterial activity against Klebsiella pneumoniae ATCC BAA 2146 expressing NDM-1 measured after 16 to 18 hrs in presence of imipenem by microbial dilution method; type: functional, organism-based; conditions: time 16-18 hrs
[19] = target: Metallo-beta-lactamase type 2 (Bacteria) (UniProt C7C422); assay: Induction of thermal stabilization of NDM-1 (unknown origin) assessed as melting temperature at 6.25 uM by differential scanning fluorimetry analysis
[20] = target: Metallo-beta-lactamase type 2 (Bacteria) (UniProt C7C422); assay: Induction of thermal stabilization of NDM-1 (unknown origin) assessed as melting temperature at 50 uM by differential scanning fluorimetry analysis
[21] = target: Metallo-beta-lactamase type 2 (Bacteria) (UniProt C7C422); assay: Induction of thermal stabilization of NDM-1 (unknown origin) assessed as melting temperature at 12.5 uM by differential scanning fluorimetry analysis
[22] = system: Klebsiella pneumoniae; assay: Synergistic antibacterial activity against Klebsiella pneumoniae ATCC BAA 2146 expressing NDM-1 measured after 16 to 18 hrs in presence of meropenem by microbial dilution method; type: functional, organism-based; conditions: time 16-18 hrs
[23] = target: Metallo-beta-lactamase type 2 (Bacteria) (UniProt C7C422); assay: Induction of thermal stabilization of NDM-1 (unknown origin) assessed as melting temperature at 25 uM by differential scanning fluorimetry analysis
[24] = target: Metallo-beta-lactamase type 2 (Bacteria) (UniProt C7C422); assay: Induction of thermal stabilization of NDM-1 (unknown origin) assessed as increase in melting temperature by differential scanning fluorimetry analysis; conditions: dose 3.12-50 µM
[25] = target: Metallo-beta-lactamase type 2 (Bacteria) (UniProt C7C422); assay: Induction of thermal stabilization of NDM-1 (unknown origin) assessed as melting temperature at 3.12 uM by differential scanning fluorimetry analysis
[26] = system: Klebsiella pneumoniae; assay: Anti-infective activity against carbapenem-resistant Klebsiella pneumoniae ATCC BAA 2146 expressing NDM-1 infected in neutropenic female BALB/c mouse deep thigh infection model assessed as reduction in bacterial count at 20 mg/kg, sc pre-infected with bacteria for 2 hrs followed by compound addition and measured after 26 hrs; type: functional

Chain of Metallo-beta-lactamase type 2 (C7C422 whole entry, the tested form may be a part): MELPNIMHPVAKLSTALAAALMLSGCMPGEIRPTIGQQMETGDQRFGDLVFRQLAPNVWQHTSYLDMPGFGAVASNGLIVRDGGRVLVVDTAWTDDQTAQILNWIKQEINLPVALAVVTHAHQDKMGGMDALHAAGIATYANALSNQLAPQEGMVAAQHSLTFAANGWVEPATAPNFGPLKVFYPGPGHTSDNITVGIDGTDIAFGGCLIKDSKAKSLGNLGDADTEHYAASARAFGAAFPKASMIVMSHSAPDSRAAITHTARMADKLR
Chain of Metallo-beta-lactamase type 2 (Bacteria) (C7C422 whole entry): as the sequence (C7C422 whole entry, the tested form may be a part) above

SMILES	IC50 [1]	IC50 [2]	IC50 [3]	further results
O=C(O)c1[nH]c2c(c1-c1ccc(F)c(F)c1)CCc1ccccc1-2	6.4 µM	0.0029 µM	1.1 µM	–
O=C(O)c1[nH]c2c(c1-c1ccc(Cl)cc1Cl)CCc1ccccc1-2	9.8 µM	0.002 µM	0.427 µM	–
O=C(O)c1[nH]c2c(c1-c1cncc(Cl)c1)CCc1ccccc1-2	1.5 µM	0.0023 µM	0.197 µM	–
O=C(O)c1[nH]c2c(c1-c1cncc(F)c1)CCc1ccccc1-2	4.1 µM	0.062 µM	2.1 µM	–
C[C@@H](O)[C@H]1C(=O)N2C(C(=O)O)=C(S[C@@H]3CN[C@H](C(=O)N(C)C)C3)[C@H](C)[C@H]12 [MEROPENEM]	–	–	–	MIC [4]: 64 µg/mL (≈ 167 µM); MIC [5]: 64 µg/mL (≈ 167 µM); MIC [6]: 32 µg/mL; MIC [7]: > 64 µg/mL; MIC [8]: > 64 µg/mL; MIC [9]: 64 µg/mL (≈ 167 µM); MIC [10]: > 64 µg/mL; MIC [11]: 64 µg/mL; MIC [12]: > 64 µg/mL; MIC [13]: 64 µg/mL; MIC [14]: > 64 µg/mL; MIC [15]: 64 µg/mL; MIC [16]: > 64 µg/mL; MIC [17]: 64 µg/mL
Cc1cc(Cl)cc(-c2c(C(=O)O)[nH]c3c2CCc2ccccc2-3)c1	0.32 µM	–	0.557 µM	–
COc1ccc(-c2c(C(=O)O)[nH]c3c2CCc2ccccc2-3)cc1	–	0.905 µM	34 µM	–
O=C(O)c1[nH]c2c(c1-c1cc(F)cc(F)c1)CCc1ccccc1-2	5.6 µM	0.047 µM	0.581 µM	–
O=C(O)c1[nH]c2c(c1-c1ccncc1)CCc1ccccc1-2	14 µM	0.071 µM	2.6 µM	–
O=C(O)c1cc2c([nH]1)-c1ccccc1CC2	23 µM	8.2 µM	7 µM	–
O=C(O)c1[nH]c2c(c1-c1cc(F)cc(Cl)c1)CCc1ccccc1-2	0.149 µM	0.0019 µM	0.048 µM	Activity [18]: Active; ΔTm [19]: 13 °C; Tm [20]: 17 °C; Tm [21]: 15 °C; Activity [22]: Active; Tm [23]: 16 °C; Activity [24]: Active; Tm [25]: 9 °C
COc1ccc(F)cc1-c1c(C(=O)O)[nH]c2c1CCc1ccccc1-2	0.38 µM	0.0075 µM	0.268 µM	–
NCCN[C@H]1CC[C@H](CC(=O)N[C@H]2Cc3cccc(C(=O)O)c3OB2O)CC1	38 µM	–	0.104 µM	–
COc1cc(F)cc(-c2c(C(=O)O)[nH]c3c2CCc2ccccc2-3)c1	15 µM	0.0068 µM	3.5 µM	–
COc1cc(OC)cc(-c2c(C(=O)O)[nH]c3c2CCc2ccccc2-3)c1	0.914 µM	0.005 µM	0.308 µM	–
O=C(O)c1[nH]c2c(c1-c1cc(Cl)c(Cl)c(Cl)c1)CCc1ccccc1-2	1.2 µM	–	2.2 µM	–
COc1ccccc1-c1c(C(=O)O)[nH]c2c1CCc1ccccc1-2	3 µM	0.188 µM	1 µM	–

SMILES	IC50 [1]	IC50 [2]	IC50 [3]	further results
O=C(O)c1ccccn1 [2-PICOLINIC ACID]	> 200 µM	13.7 µM	> 200 µM	–
Cc1cc(C(=O)O)[nH]c1-c1ccccc1	44 µM	10.6 µM	96 µM	–
COc1cc(Cl)cc(-c2c(C(=O)O)[nH]c3c2CCc2ccccc2-3)c1	0.303 µM	–	0.438 µM	–
CC(C)(C)c1ccc(-c2c(C(=O)O)[nH]c3c2CCc2ccccc2-3)cc1	8.5 µM	0.015 µM	0.797 µM	–
Cc1ccc(-c2c(C(=O)O)[nH]c3c2CCc2ccccc2-3)c(F)c1	4.6 µM	0.0077 µM	1.5 µM	–
C[C@@H](O)[C@H]1C(=O)N2C(C(=O)O)=C(SCCNC=N)C[C@H]12 [IMIPENEM ANHYDROUS]	–	–	–	MIC [4]: 8 µg/mL (≈ 26.7 µM); MIC [5]: 8 µg/mL (≈ 26.7 µM); MIC [6]: 16 µg/mL; MIC [7]: 64 µg/mL; MIC [8]: > 64 µg/mL; Activity [26]: ~1.15 log10CFU/ml; MIC [9]: 16 µg/mL (≈ 53.4 µM); MIC [10]: > 64 µg/mL; MIC [11]: 16 µg/mL; MIC [12]: > 64 µg/mL; MIC [13]: 32 µg/mL; MIC [14]: 32 µg/mL; MIC [15]: 32 µg/mL; MIC [16]: 64 µg/mL; MIC [17]: 64 µg/mL
O=C(O)c1[nH]c2c(c1-c1cccc(Cl)c1Cl)CCc1ccccc1-2	22 µM	0.015 µM	–	–
COc1cc(F)ccc1-c1c(C(=O)O)[nH]c2c1CCc1ccccc1-2	1.7 µM	0.0236 µM	0.58 µM	–
O=C(O)c1[nH]c2c(c1-c1ccccc1F)CCc1ccccc1-2	2.3 µM	0.058 µM	0.613 µM	–
O=C(O)c1[nH]c2c(c1-c1cccc(F)c1F)CCc1ccccc1-2	2.4 µM	0.268 µM	1.9 µM	–
O=C(O)c1[nH]c2c(c1-c1ccc(Cl)cc1)CCc1ccccc1-2	2.1 µM	0.0031 µM	1.7 µM	–
O=C(O)c1[nH]c2c(c1-c1cc(Cl)cc(Cl)c1)CCc1ccccc1-2	0.428 µM	0.008 µM	0.034 µM	Activity [18]: Active; ΔTm [19]: 1 °C; Tm [20]: 14 °C; Tm [21]: 8 °C; Activity [22]: Active; Tm [23]: 11 °C; Activity [24]: Active
O=C(O)c1[nH]c2c(c1-c1cccc(F)c1)CCc1ccccc1-2	3 µM	0.0081 µM	0.408 µM	–
O=C(O)c1[nH]c2c(c1-c1cccc(Cl)c1)CCc1ccccc1-2	0.35 µM	0.0025 µM	0.468 µM	–
O=C(O)c1[nH]c2c(c1-c1ccccc1Cl)CCc1ccccc1-2	0.99 µM	0.0031 µM	0.217 µM	–
O=C(O)c1[nH]c2c(c1-c1ccccc1)CCc1ccccc1-2	8.5 µM	0.111 µM	3.7 µM	–
Cc1cc(C)cc(-c2c(C(=O)O)[nH]c3c2CCc2ccccc2-3)c1	1.2 µM	0.0047 µM	0.33 µM	–
